In publication PMC11509018, “Evaluation of the Role of Tanshinone I in an In Vitro System of Charcot-Marie-Tooth Disease Type 2N” (International Journal of Molecular Sciences, 2024) one finds Kd data, which are given here for one compound.

What is called Kd is the constant that tells how readily two partners part at equilibrium. Read a high Kd as a looser complex.

The target in one assay is T1, AlaRS^R326W (Homo sapiens, UniProt P49588, R326W).
T1 construct: made in house; host or cells: E. coli BL21 (DE3), pET-21a
T1 sequence (P49588 1-968 R326W): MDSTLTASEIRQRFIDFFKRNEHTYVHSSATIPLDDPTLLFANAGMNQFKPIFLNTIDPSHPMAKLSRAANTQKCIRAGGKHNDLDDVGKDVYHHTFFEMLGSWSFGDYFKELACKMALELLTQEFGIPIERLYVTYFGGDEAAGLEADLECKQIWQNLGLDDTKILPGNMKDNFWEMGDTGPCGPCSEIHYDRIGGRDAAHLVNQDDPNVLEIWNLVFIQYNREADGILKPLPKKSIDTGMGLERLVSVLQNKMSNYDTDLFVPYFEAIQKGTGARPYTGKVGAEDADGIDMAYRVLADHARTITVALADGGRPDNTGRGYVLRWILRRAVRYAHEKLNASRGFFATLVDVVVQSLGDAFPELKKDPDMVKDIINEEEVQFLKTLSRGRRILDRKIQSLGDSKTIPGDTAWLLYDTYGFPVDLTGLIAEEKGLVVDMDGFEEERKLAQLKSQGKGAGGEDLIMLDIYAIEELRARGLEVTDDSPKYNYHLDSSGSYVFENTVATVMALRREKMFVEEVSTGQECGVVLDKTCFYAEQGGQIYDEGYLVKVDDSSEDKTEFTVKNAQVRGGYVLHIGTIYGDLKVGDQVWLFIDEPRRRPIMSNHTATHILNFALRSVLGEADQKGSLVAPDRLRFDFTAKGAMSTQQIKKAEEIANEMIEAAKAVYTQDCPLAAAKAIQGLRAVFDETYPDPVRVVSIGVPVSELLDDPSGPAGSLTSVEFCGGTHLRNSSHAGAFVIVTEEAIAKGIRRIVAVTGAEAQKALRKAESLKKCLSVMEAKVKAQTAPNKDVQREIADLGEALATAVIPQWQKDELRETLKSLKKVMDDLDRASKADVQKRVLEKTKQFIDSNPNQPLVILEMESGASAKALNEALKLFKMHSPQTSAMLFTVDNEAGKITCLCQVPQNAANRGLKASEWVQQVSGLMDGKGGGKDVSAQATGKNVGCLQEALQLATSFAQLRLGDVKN
The assay is described as follows: Biolayer interferometry (BLI). The class given is binding. The note with it: immobilized AlaRS^R326W, mean ± SD, triplicate. The protocol:
(§1) Furthermore, we examined the interaction of Tanshinone I with additional AlaRS CMT mutants capable of binding to Nrp1 and causing conformational changes by BLI and proteolysis assays on additional related mutants. […] To further quantify the binding of small molecules to mutant proteins, binding experiments with AlaRS^R329H proteins and small molecules were conducted using an Octet R8 system (ForteBio, Fremont, CA, USA). Purified His-tagged AlaRS^R329H proteins (500 μg/mL) were captured on Ni-NTA biosensors (ForteBio, Fremont, CA, USA), achieving a saturation response of 4–5 nm after 300 s. The biosensors were then transferred to Octet buffer (PBS with 0.01% Tween 20) for 180 s to remove loosely bound, nonspecific proteins and to establish a stable baseline. Following this, the sensors were immersed in diluted Tanshinone I (2.5–100 μM in assay buffer) for 120 s to record the association signal, and then transferred back into Octet buffer to monitor the dissociation signal for 120 s. Reference wells containing buffer instead of Tanshinone I were included to correct for baseline shifts. Additionally, a parallel set of Ni-NTA sensors in buffer served as negative reference controls to account for nonspecific binding of the compounds to the biosensor surface. The data were processed using a double reference subtraction protocol to eliminate nonspecific signals, background noise, and signal drifts caused by biosensor variability. All assays were performed in 96-well black plates with a total volume of 200 μL per well at 30 °C. Data analysis, including correction and curve fitting, was carried out using Octet® Analysis Studio 12.2.2.26. The experiment was repeated three times.

For the next assay, the target named is T2, AlaRS^E337K (Homo sapiens, UniProt P49588, E337K).
T2 construct: made in house; host or cells: E. coli BL21 (DE3), pET-21a
T2 sequence (P49588 1-968 E337K): T1 sequence (P49588 1-968 R326W) with W326R, E337K
The assay is described as follows: Biolayer interferometry (BLI). The class given is binding. The note with it: immobilized AlaRS^E337K, mean ± SD, triplicate. The protocol:
as §1

Numbering of substitutions follows the chain as printed.

For `Cc1coc2c1C(=O)C(=O)c1c-2ccc2c(C)cccc12` [Tanshinone I], the results for the Kd at AlaRS^R326W and at AlaRS^E337K were 39.6 ± 6.4 µM and 19.2 ± 4.2 µM, respectively.
